Laboratory results reported in patent US20170320870A1 (Medical Research Council Technology, priority 2009, published 2017).

Biological target: T1, LRRK2 wild type (recombinant human, catalytic domain amino acids 970-2527, GST-tagged) (Homo sapiens, UniProt Q5S007)
T1 construct: The wild type used was recombinant human, catalytic domain (amino acids 970-2527) GST-tagged, expressed in insect cells; GST; purchased Invitrogen Corporation PV4873; host or cells: insect cells
Experiment: LRRK2 wild type protein kinase assay ([γ-33P] ATP, peptide substrate […]), IC50
Format: biochemical
Conditions: LRRK2 (variant not given); read-out: Potency score, LRRK2 IC50
Outline: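 IC50 derived from duplicate 10-point titrations, with 33P incorporation into a 100 μM peptide counted after P81 filter capture. Roughly 5 nM unactivated kinase reacted with Mg/[γ-33P]ATP for 180 min at room temperature (~21 °C), pH 7.5 Tris buffer containing 10 mM MgCl2, EGTA and DTT; acid-quenched.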

T1 sequence (Q5S007 970-2527): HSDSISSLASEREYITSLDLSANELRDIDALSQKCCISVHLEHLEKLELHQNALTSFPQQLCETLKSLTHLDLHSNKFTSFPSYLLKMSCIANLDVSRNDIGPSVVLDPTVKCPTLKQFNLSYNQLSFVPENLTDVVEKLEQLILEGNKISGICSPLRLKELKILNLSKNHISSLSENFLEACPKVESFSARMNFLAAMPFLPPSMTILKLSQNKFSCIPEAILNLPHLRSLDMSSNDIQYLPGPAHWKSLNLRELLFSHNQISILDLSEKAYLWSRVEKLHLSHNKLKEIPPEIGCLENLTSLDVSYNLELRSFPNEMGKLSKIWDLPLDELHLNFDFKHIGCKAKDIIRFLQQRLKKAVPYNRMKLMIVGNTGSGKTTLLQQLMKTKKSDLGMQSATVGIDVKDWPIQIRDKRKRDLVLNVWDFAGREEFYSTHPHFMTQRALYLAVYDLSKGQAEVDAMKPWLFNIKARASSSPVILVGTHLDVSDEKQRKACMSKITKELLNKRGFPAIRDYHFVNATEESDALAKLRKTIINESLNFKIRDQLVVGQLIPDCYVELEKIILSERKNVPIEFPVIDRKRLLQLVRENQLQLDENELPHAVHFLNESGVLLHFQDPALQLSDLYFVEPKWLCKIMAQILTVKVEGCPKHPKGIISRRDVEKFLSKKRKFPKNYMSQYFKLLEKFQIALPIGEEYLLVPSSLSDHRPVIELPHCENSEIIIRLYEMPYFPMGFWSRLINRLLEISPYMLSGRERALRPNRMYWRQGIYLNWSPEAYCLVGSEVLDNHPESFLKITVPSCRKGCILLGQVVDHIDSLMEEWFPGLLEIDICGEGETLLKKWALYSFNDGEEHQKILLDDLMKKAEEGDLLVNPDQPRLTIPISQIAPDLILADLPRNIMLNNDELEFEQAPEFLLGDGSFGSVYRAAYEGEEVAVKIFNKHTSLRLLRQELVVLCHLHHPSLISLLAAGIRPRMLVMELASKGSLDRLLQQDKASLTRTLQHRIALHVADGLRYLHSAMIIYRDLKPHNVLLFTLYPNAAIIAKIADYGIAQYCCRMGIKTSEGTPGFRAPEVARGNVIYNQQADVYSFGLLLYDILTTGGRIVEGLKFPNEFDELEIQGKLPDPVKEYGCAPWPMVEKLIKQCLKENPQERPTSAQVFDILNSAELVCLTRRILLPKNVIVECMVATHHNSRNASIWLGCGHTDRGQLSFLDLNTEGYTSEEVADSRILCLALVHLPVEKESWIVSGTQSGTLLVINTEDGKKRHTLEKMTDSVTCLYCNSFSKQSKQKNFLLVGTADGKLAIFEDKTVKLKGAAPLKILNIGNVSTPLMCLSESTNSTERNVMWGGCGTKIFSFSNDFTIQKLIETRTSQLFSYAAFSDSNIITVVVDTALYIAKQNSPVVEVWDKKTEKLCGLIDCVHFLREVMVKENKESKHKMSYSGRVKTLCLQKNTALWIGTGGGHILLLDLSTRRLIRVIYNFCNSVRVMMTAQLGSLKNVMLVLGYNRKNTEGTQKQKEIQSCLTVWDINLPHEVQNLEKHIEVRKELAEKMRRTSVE

IC50 [nM] | SMILES
100 to 1000 | CN1CCOc2cc(-c3n[nH]c4ccnc(NC5CCCCC5)c34)ccc21 [Example 161, Cyclohexyl-[3-(4-methyl-3,4-dihydro-2H-1,4-benzoxazin-7-yl)-1H-pyrazolo[4,3-c]pyridin-4-yl]-amine]
100 to 1000 | Cn1cc(-c2n[nH]c3ccnc(NC4CCCCC4)c23)cn1 [Example 162, Cyclohexyl-[3-(1-methyl-1H-pyrazolo-4-yl)-1H-pyrazolo[4,3-c]pyridin-4-yl]-amine]
1000 to 10000 | Fc1cc(-c2n[nH]c3ccnc(NC4CCCCC4)c23)cc(F)c1F [Example 163, Cyclohexyl-[3-(3,4,5-trifluoro-phenyl)-1H-pyrazolo[4,3-c]pyridin-4-yl]-amine]
1000 to 10000 | c1ccc2c(-c3n[nH]c4ccnc(NC5CCCCC5)c34)cncc2c1 [Example 164, Cyclohexyl-(3-isoquinolin-4-yl-1H-pyrazolo[4,3-c]pyridin-4-yl)-amine]
1000 to 10000 | CN(C)C(=O)c1ccc(-c2n[nH]c3ccnc(NC4CCCCC4)c23)cc1 [Example 165, 4-(4-Cyclohexylamino-1H-pyrazolo[4,3-c]pyridin-3-yl)-N,N-dimethyl-benzamide]
1000 to 10000 | Fc1cc(C(F)(F)F)ccc1-c1n[nH]c2ccnc(NC3CCCCC3)c12 [Example 166, Cyclohexyl-[3-(2-fluoro-4-trifluoromethyl-phenyl)-1H-pyrazolo[4,3-c]pyridin-4-yl]-amine]
100 to 1000 | Oc1nccc2[nH]nc(-c3ccoc3)c12 [Example 167, 3-Furan-3-yl-1H-pyrazolo[4,3-c]pyridin-4-ol]
100 to 1000 | O=C(CCc1n[nH]c2ccnc(NC3CCCCC3)c12)N1CCC(F)(F)CC1 [Example 168, 3-(4-Cyclohexylamino-1H-pyrazolo[4,3-c]pyridin-3-yl)-1-(4,4-difluoro-piperidin-1-yl)-propan-1-one]
100 to 1000 | O=C(CCc1n[nH]c2ccnc(NC3CCCCC3)c12)N1CCCCC1 [Example 169, 3-(4-Cyclohexylamino-1H-pyrazolo[4,3-c]pyridin-3-yl)-1-piperidin-1-yl-propan-1-one]
100 to 1000 | O=C(CCc1n[nH]c2ccnc(NC3CCCCC3)c12)N1CCCC(c2ccccc2)C1 (centres unmarked) [Example 170, 3-(4-Cyclohexylamino-1H-pyrazolo[4,3-c]pyridin-3-yl)-1-(3-phenyl-piperidin-1-yl)-propan-1-one]
1000 to 10000 | O=C(CCc1n[nH]c2ccnc(NC3CCCCC3)c12)NC1CC1 [Example 171, 3-(4-Cyclohexylamino-1H-pyrazolo[4,3-c]pyridin-3-yl)-N-cyclopropyl-propionamide]
100 to 1000 | O=C(CCc1n[nH]c2ccnc(NC3CCCCC3)c12)N1CCCC1 [Example 173, 3-(4-Cyclohexylamino-1H-pyrazolo[4,3-c]pyridin-3-yl)-1-pyrrolidin-1-yl-propan-1-one]
1000 to 10000 | CN(C)C1CCN(C(=O)CCc2n[nH]c3ccnc(NC4CCCCC4)c23)CC1 [Example 174, 3-(4-Cyclohexylamino-1H-pyrazolo[4,3-c]pyridin-3-yl)-1-(4-dimethylamino-piperidin-1-yl)-propan-1-one]
100 to 1000 | O=C(CCc1n[nH]c2ccnc(NC3CCCCC3)c12)N1CCOCC1 [Example 175, 3-(4-Cyclohexylamino-1H-pyrazolo[4,3-c]pyridin-3-yl)-1-morpholin-4-yl-propan-1-one]
100 to 1000 | O=C(CCc1n[nH]c2ccnc(NC3CCCCC3)c12)N1CCC(O)(c2ccccc2)CC1 [Example 176, 3-(4-Cyclohexylamino-1H-pyrazolo[4,3-c]pyridin-3-yl)-1-(4-hydroxy-4-phenyl-piperidin-1-yl)-propan-1-one]
100 to 1000 | CN1CCN(C(=O)CCc2n[nH]c3ccnc(NC4CCCCC4)c23)CC1 [Example 177, 3-(4-Cyclohexylamino-1H-pyrazolo[4,3-c]pyridin-3-yl)-1-(4-methyl-piperazin-1-yl)-propan-1-one]
100 to 1000 | COCCN1CCN(C(=O)CCc2n[nH]c3ccnc(NC4CCCCC4)c23)CC1 [Example 178, 3-(4-Cyclohexylamino-1H-pyrazolo[4,3-c]pyridin-3-yl)-1-[4-(2-methoxy-ethyl)-piperazin-1-yl]-propan-1-one]
